Patent publication US9090593B2, “Bicyclic compounds as Pim inhibitors” (AMGEN INC., priority 2010, dated 2015)
Read-outs that look alike come from different tables or passages of the source.

Key:
[1] = target: T1, Pim-2 stably transfected into the U2OS human osteogenic sarcoma line (Homo sapiens, UniProt Q9P1W9); test: Pim cell assay, phospho-BAD normalized against total BAD, U2OS stably transfected with Pim-2; type: cell-based; details: read-out: Pim2_Cell_IC50; also: high dose 31.6 µM
T1 construct: expressed in transfected cells; host or cells: U2OS human osteogenic sarcoma line
T1 sequence (Q9P1W9 whole entry): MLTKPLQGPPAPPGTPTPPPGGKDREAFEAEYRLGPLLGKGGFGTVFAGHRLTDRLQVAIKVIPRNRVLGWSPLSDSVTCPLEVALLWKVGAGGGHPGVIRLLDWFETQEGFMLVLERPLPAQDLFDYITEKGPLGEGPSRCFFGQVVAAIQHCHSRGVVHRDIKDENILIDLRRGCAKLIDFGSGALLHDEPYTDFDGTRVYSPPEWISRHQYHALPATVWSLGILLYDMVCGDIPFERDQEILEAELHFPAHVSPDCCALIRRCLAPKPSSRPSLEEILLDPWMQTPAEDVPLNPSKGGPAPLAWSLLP
Summary of the method: (§1)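 U2OS cells stably expressing Pim-1 or Pim-2 were plated overnight at 37 °C, then dosed over a 10-point curve (final 0.3% DMSO; DMSO alone as high control). Lysates assayed for phospho- and total BAD by Meso Scale immunoassay; % phosphoprotein = (2×phospho)/(phospho+total)×100.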

[2] = target: T2, full length recombinant Pim-3 protein (Homo sapiens, UniProt Q86V86); test: Pim-3 enzyme assay (HTRF, phosphorylation of biotinylated-BAD (S112) peptide); type: biochemical; details: read-out: Pim3 IC50
T2 construct: by full length recombinant Pim-1, Pim-2, or Pim-3 protein; purchased Millipore (UK)
Summary of the method: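 Full-length recombinant Pim-3 phosphorylates biotinylated BAD (S112) peptide in 60 mM Hepes pH 7.0, 0.05% BSA, 2 mM DTT; reaction stopped with 3 mM EDTA. Phospho-BAD detected by HTRF (Eu anti-phospho-BAD S112 antibody, streptavidin-APC). IC50 from percent-of-control values fitted to a 4-parameter logistic model.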

[3] = target: T3, full length recombinant Pim-2 protein (Homo sapiens, UniProt Q9P1W9); test: Pim-2 enzyme assay (HTRF, phosphorylation of biotinylated-BAD (S112) peptide); type: biochemical; details: enzyme assay, Pim-2; read-out: Pim2_IC50
T3 construct: by full length recombinant Pim-1, Pim-2, or Pim-3 protein; hexahistidine tag followed by a thrombin cleavage site (N); made in house; host or cells: Sf9 (baculovirus) or E. coli (pET28)
T3 sequence (Q9P1W9 whole entry): as the sequence (Q9P1W9 whole entry) above
Summary of the method: (§2)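 Kinase: full-length human Pim-1/Pim-2, His6-thrombin tagged. Substrate biotin-BAD (S112) peptide. Buffer 60 mM Hepes pH 7.0, 0.05% BSA, 2 mM DTT. Stop 3 mM EDTA. Detection HTRF (Eu anti-pBAD/SA-APC). IC50 by 4-parameter logistic on POC.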

[4] = target: T4, full length recombinant Pim-1 protein (Homo sapiens, UniProt P11309); test: Pim-1 enzyme assay (HTRF, phosphorylation of biotinylated-BAD (S112) peptide); type: biochemical; details: enzyme assay, Pim-1; read-out: Pim_1_IC50
T4 construct: by full length recombinant Pim-1, Pim-2, or Pim-3 protein; hexahistidine tag followed by a thrombin cleavage site (N); made in house; host or cells: Sf9 (baculovirus) or E. coli (pET28)
T4 sequence (P11309 whole entry): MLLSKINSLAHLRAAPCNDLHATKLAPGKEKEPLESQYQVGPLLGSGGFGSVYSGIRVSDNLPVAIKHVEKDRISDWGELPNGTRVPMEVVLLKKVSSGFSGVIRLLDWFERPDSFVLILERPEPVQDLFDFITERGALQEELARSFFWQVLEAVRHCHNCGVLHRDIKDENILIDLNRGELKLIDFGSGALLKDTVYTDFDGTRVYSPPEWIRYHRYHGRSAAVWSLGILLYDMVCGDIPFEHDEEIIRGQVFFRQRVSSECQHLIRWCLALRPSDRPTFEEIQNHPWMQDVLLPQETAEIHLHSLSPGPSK
Summary of the method: as §2

[5] = target: T5, Pim-1 stably transfected into the U2OS human osteogenic sarcoma line (Homo sapiens, UniProt P11309); test: Pim cell assay, phospho-BAD normalized against total BAD, U2OS stably transfected with Pim-1; type: cell-based; details: read-out: Pim1_Cell_IC50
T5 construct: expressed in transfected cells; host or cells: U2OS human osteogenic sarcoma line
T5 sequence (P11309 whole entry): as above
Summary of the method: as §1

[6] = U2OS cells stably transfected with Pim-2, phospho-BAD, high dose […]
[7] = U2OS cells stably transfected with Pim-1, phospho-BAD, high dose […]

| Structure (SMILES) | IC50 [1, 6] [µM] | IC50 [2] [µM] | IC50 [3] [µM] | IC50 [4] [µM] | IC50 [5, 7] [µM] | IC50 [5] [µM] | IC50 [1] [µM] |
| --- | --- | --- | --- | --- | --- | --- | --- |
| NC1CCN(c2cncc(-c3n[nH]c4ccc(Br)cc34)n2)CC1 [Example 1, 1-(6-(5-bromo-1H-indazol-3-yl)pyrazin-2-yl)piperidin-4-amine] | 8.73 | 0.011 | 0.023 | 0.031 | 0.788 | – | – |
| c1cc2[nH]nc(-c3cncc(O[C@@H]4CCCNC4)n3)c2cc1-c1cncc(C2CC2)n1 [Example 118, 5-(6-cyclopropyl-2-pyrazinyl)-3-(6-((3R)-3-piperidinyloxy)-2-pyrazinyl)-1H-indazole] | 5.75 | 0.001 | 0.024 | – | 0.041 | – | – |
| c1ccc(-c2ccc3[nH]nc(-c4cncc(O[C@@H]5CCCNC5)n4)c3c2)cc1 [Example 134, 5-phenyl-3-(6-((3R)-3-piperidinyloxy)-2-pyrazinyl)-1H-indazole] | – | 0.014 | 0.037 | 0.007 | 0.316 | – | – |
| COc1cccc(-c2ccc3[nH]nc(-c4cncc(O[C@@H]5CCCNC5)n4)c3c2)n1 [Example 137, 5-(6-methoxy-2-pyridinyl)-3-(6((3R)-3-piperidinyloxy)-2-pyrazinyl)-1H-indazole] | – | 0.006 | 0.063 | 0.008 | 0.585 | – | – |
| c1cc2c(cc1-c1ccc3[nH]nc(-c4cncc(O[C@@H]5CCCNC5)n4)c3c1)OCCO2 [Example 140, 5-(2,3-dihydro-1,4-benzodioxin-6-yl)-3-(6-((3R)-3-piperidinyloxy)-2-pyrazinyl)-1H-indazole] | 7.78 | 0.006 | 0.019 | 0.002 | – | – | – |
| C1=C(c2ccc3[nH]nc(-c4cncc(O[C@@H]5CCCNC5)n4)c3c2)CCOC1 [Example 148, 5-(3,6-dihydro-2H-pyran-4-yl)-3-(6-((3R)-3-piperidinyloxy)-2-pyrazinyl)-1H-indazole] | – | 0.007 | 0.025 | 0.006 | 0.314 | – | – |
| CC(C)Oc1nccc(-c2ccc3[nH]nc(-c4cncc(O[C@@H]5CCCNC5)n4)c3c2)n1 [Example 153, 5-(2-(1-methylethoxy)-4-pyrimidinyl)-3-(6-((3R)-3-piperidinyloxy)-2-pyrazinyl)-1H-indazole] | – | 0.027 | 0.165 | 0.012 | 0.174 | – | – |
| C1=C(c2ccc3[nH]nc(-c4cncc(O[C@@H]5CCCNC5)n4)c3c2)COCC1 [Example 154, 5-(5,6-dihydro-2H-pyran-3-yl)-3-(6-((3R)-3-piperidinyloxy)-2-pyrazinyl)-1H-indazole] | – | 0.016 | 0.071 | 0.015 | 0.772 | – | – |
| COc1cc(-c2ccc3[nH]nc(-c4cncc(O[C@@H]5CCCNC5)n4)c3c2)ccn1 [Example 160, 5-(2-methoxy-4-pyridinyl)-3-(6-((3R)-3-piperidinyloxy)-2-pyrazinyl)-1H-indazole] | – | 0.012 | 0.024 | 0.005 | 0.108 | – | – |
| N[C@@H]1CCCN(c2cncc(-c3c[nH]c4ccc(-c5c(F)cccc5F)cc34)n2)C1 [Example 203, (3R)-1-(6-(5-(2,6-difluorophenyl)-1H-indol-3-yl)-2-pyrazinyl)-3-piperidinamine] | – | 0.018 | 0.184 | 0.008 | 3.05 | – | – |
| O=C1CN(c2cncc(-c3c[nH]c4ccc(-c5c(F)cccc5F)cc34)n2)CCN1 [Example 204, 4-(6-(5-(2,6-difluorophenyl)-1H-indol-3-yl)-2-pyrazinyl)-2-piperazinone] | – | 0.098 | 0.987 | 0.08 | – | 2.23 | – |

The remaining compounds from weak to strong by IC50 [2], led by results:

| IC50 [1, 6] [µM] | IC50 [2] [µM] | IC50 [3] [µM] | IC50 [4] [µM] | IC50 [5, 7] [µM] | IC50 [5] [µM] | IC50 [1] [µM] | Structure (SMILES) |
| --- | --- | --- | --- | --- | --- | --- | --- |
| – | 0.092 | 1.64 | 0.069 | 2.41 | – | – | Fc1cccc(F)c1-c1ccc2[nH]nc(-c3cncc(N4CCOCC4)n3)c2c1 [Example 169, 5-(2,6-difluorophenyl)-3-(6-(4-morpholinyl)-2-pyrazinyl)-1H-indazole] |
| – | 0.051 | 0.414 | 0.021 | 8.85 | – | – | Fc1cccc(F)c1-c1ccc2[nH]cc(-c3cncc(NC4CCCCC4)n3)c2c1 [Example 202, N-cyclohexyl-6-(5-(2,6-difluorophenyl)-1H-indol-3-yl)-2-pyrazinamine] |
| – | 0.031 | 0.084 | 0.007 | 0.996 | – | – | CC(C)Oc1cccc(-c2ccc3[nH]nc(-c4cncc(O[C@@H]5CCCNC5)n4)c3c2)c1 [Example 146, 5-(3-(1-methylethoxy)phenyl)-3-(6-((3R)-3-piperidinyloxy)-2-pyrazinyl)-1H-indazole] |
| – | 0.028 | 0.065 | 0.047 | – | – | > 15.8 | NC1CCN(c2cncc(-c3c[nH]c4ccc([N+](=O)[O-])cc34)n2)CC1 [Example 232, 1-(6-(5-nitro-1H-indol-3-yl)pyrazin-2-yl)piperidin-4-amine] |
| – | 0.013 | 0.105 | 0.007 | 0.724 | – | – | C(=C\C1CC1)/c1ccc2[nH]nc(-c3cncc(O[C@@H]4CCCNC4)n3)c2c1 [Example 147, 5-((E)-2-cyclopropylethenyl)-3-(6-((3R)-3-piperidinyloxy)-2-pyrazinyl)-1H-indazole] |
| – | 0.012 | 0.032 | 0.012 | 1.74 | – | – | O=C(NC1CC1)c1ccnc(-c2ccc3[nH]nc(-c4cncc(O[C@@H]5CCCNC5)n4)c3c2)c1 [Example 157, N-cyclopropyl-2-(3-(6-((3R)-3-piperidinyloxy)-2-pyrazinyl)-1H-indazol-5-yl)-4-pyridinecarboxamide] |
| 7.39 | 0.009 | 0.013 | 0.008 | 3.68 | – | – | NC1CCN(c2cncc(-c3n[nH]c4ccc(-c5cc(C(=O)NC6CC6)ccc5F)cc34)n2)CC1 [Example 3, 3-(3-(6-(4-aminopiperidin-1-yl)pyrazin-2-yl)-1H-indazol-5-yl)-N-cyclopropyl-4-fluorobenzamide] |
| – | 0.007 | 0.048 | 0.006 | 0.292 | – | – | c1cnnc(-c2ccc3[nH]nc(-c4cncc(O[C@@H]5CCCNC5)n4)c3c2)c1 [Example 149, 3-(6-((3R)-3-piperidinyloxy)-2-pyrazinyl)-5-(3-pyridazinyl)-1H-indazole] |
| – | 0.007 | 0.036 | 0.007 | 1.06 | – | – | COc1nccc(-c2ccc3[nH]nc(-c4cncc(O[C@@H]5CCCNC5)n4)c3c2)n1 [Example 152, 5-(2-methoxy-4-pyrimidinyl)-3-(6-((3R)-3-piperidinyloxy)-2-pyrazinyl)-1H-indazole] |
| – | 0.007 | 0.044 | 0.005 | – | – | 5.82 | COC(=O)c1ccc2[nH]cc(-c3cncc(N4CCC(N)CC4)n3)c2c1 [Example 236, methyl 3-(6-(4-aminopiperidin-1-yl)pyrazin-2-yl)-1H-indole-5-carboxylate] |
| 3.52 | 0.006 | 0.01 | 0.001 | – | – | – | CN1CCOc2cc(-c3ccc4[nH]nc(-c5cncc(O[C@@H]6CCCNC6)n5)c4c3)ccc21 [Example 123, 4-methyl-7-(3-(6-((3R)-3-piperidinyloxy)-2-pyrazinyl)-1H-indazol-5-yl)-3,4-dihydro-2H-1,4-benzoxazine] |
| – | 0.006 | 0.019 | 0.004 | 0.146 | – | – | Fc1cccc(F)c1-c1ccc2[nH]nc(-c3cncc(O[C@H]4CNC[C@@H](F)C4)n3)c2c1 [Example 196, 5-(2,6-difluorophenyl)-3-(6-(((3R,5S)-5-fluoro-3-piperidinyl)oxy)-2-pyrazinyl)-1H-indazole] |
| > 31.6 | 0.002 | 0.072 | 0.001 | – | – | – | NC1CCN(c2cncc(-c3n[nH]c4ccc(-c5ccnc(N6CCOCC6)n5)cc34)n2)CC1 [Example 98, 1-(6-(5-(2-(4-morpholinyl)-4-pyrimidinyl)-1H-indazol-3-yl)-2-pyrazinyl)-4-piperidinamine] |
| – | 0.001 | 0.071 | 0.002 | 0.75 | – | – | O=C(NC1CC1)c1cncc(-c2ccc3[nH]nc(-c4cncc(O[C@@H]5CCCNC5)n4)c3c2)c1 [Example 159, N-cyclopropyl-5-(3-(6-((3R)-3-piperidinyloxy)-2-pyrazinyl)-1H-indazol-5-yl)-3-pyridinecarboxamide] |
